# Results taken from patent US5525626A (priority 1989, dated 1996).
# What was measured:
# g-UVW cells = experiment: antineoplastic effect on human anaplastic astrocytoma cells (Table 1, Example 3); format: cell-based
# Description: The process as per Example 2 was repeated with the exception that cells of the 6-UVW line from human anaplastic astrocytoma were used and enriched in DMEM:HAM's F 12 medium (1:1) with L-glutamine and 10% FCS.
# EJ cells = experiment: growth inhibition of bladder carcinoma cells (Table 1); format: cell-based, human; conditions: 200 μmol/ml, after 10 days
# TP 410 N cells = experiment: growth curve, neuroblastoma cells; format: cell-based, human; conditions: for Cell count: 25 μM/ml
# Experimental: (§1) The neuroblastoma cell line and the three glioblastoma cell lines were cultivated in Ham's F10 medium enriched with 10% fetal calf serum (FCS) and the usual quantity of penicillin, streptomycin (Pen/Strep) and glutamine. The epidermoidal cell line was cultivated in modified Eagle's Medium (MEM), likewise enriched with 10% (FCS) and the usual quantity of glutamine and Pen/Strep.
# In each case 5×10^4 cells were plated out in T25 bottles, the untreated cells being incubated in analogous conditions as control. The cell count was microscopically determined after 3, 5, 7, 10 and 12 days.
# [1] = tested on: U 178 MG, TP 410 N, TP 242 MG, TP 336 MG and A 431 cells; conditions: 37.5 μM/ml, 48 hours
# Experimental: as §1
# Untreated cells served as a control. Subsequently, the cells were incubated for 8 hours with ^3 H-thymidine. The radioactivity absorbed by the cells was measured in the usual way.
# [2] = tested on: Tp 410 N neuroblastoma cells; experiment: 3H-thymidine assay; format: cell-based; conditions: Homo sapiens, Neuroblastoma cell
# At T 20 = experiment: 3H-thymidine assay; format: cell-based; conditions: Mus musculus, AtT20
# Summary of the method: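 In this antiproliferative test, AtT20 cells were plated at 10^4 per well in 24-well plates and, once roughly half-confluent after approximately 48 hours, switched to medium containing compound. After two ice-cold PBS washes, incorporated label was precipitated with 5% trichloroacetic acid (one hour, 4° C), dissolved in 0.3M NaOH and measured. Thymidine insertion was compared with untreated controls to estimate growth inhibition.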
# CAKI-1 cells = experiment: 3H-thymidine assay; format: cell-based; conditions: Homo sapiens, CAKI-1
# Summary of the method: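 Antiproliferative activity against CAKI-1 cells was measured by 3H-thymidine incorporation. After washing in PBS, precipitated radioactivity was solubilized in 0.3M NaOH and counted. Incorporation in substance-treated cells was compared with untreated controls to assess growth inhibition, and the substance concentration giving 50% inhibition of 3H-thymidine insertion was found.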
# [3] = tested on: Z-R-75-1 breast cancer cells; experiment: 3H-thymidine assay; format: cell-based; conditions: Homo sapiens, ZR-75-1
# G-361 melanoma cells = experiment: 3H-thymidine assay; format: cell-based; conditions: Homo sapiens, G-361
# bladder tumor cells = experiment: photometric cell count / mitochondrial activity; format: cell-based; conditions: 20 hours, increasing concentrations
# Experimental: (§2) Subsequently the cell count was photometrically determined according to Alley M. C. et al., Cancer Research 48, 589-601 (1988). In the process, a colorant is added to the cells that have been mixed with medium, the colorant being so converted by cells with mitochondrial activity that a photometric determination of the cell count is possible.
# [4] = tested on: erythroleukemic cells (K 562); experiment: photometric cell count / mitochondrial activity; format: cell-based; conditions: 20 hours, increasing concentrations
# Experimental: as §2
# LNCap cells = experiment: cell growth in combination with testosterone; format: cell-based, human
# [5] = tolerance study in patients with malignant tumors; format: in vivo, human
# Description: Over 8 consecutive weeks the patients were examined once a week for signs of systemic toxicity and organic dysfunctions.
# [6] = tested on: brain-tumor cells (glioblastoma cells); experiment: growth inhibition of brain-tumor cells; format: cell-based; conditions: Tables 1 to 3
# [7] = Table 4, read-out: active substance concentration at which 3H-thymidine insertion was 50% inhibited
# [8] = 1 μM/ml, read-out: 3H-thymidine tracer (%) of control
# [9] = 2 μM/ml, read-out: 3H-thymidine tracer (%) of control
# [10] = 4 μM/ml, read-out: 3H-thymidine tracer (%) of control
# [11] = 8 μM/ml, read-out: 3H-thymidine tracer (%) of control
# [12] = 16 μM/ml, read-out: 3H-thymidine tracer (%) of control
# [13] = 25 μM/ml, read-out: 3H-thymidine tracer (%) of control
# [14] = 50 μM/ml, read-out: 3H-thymidine tracer (%) of control
# [15] = 100 μM/ml, read-out: 3H-thymidine tracer (%) of control
# [16] = 250 μM/ml, read-out: 3H-thymidine tracer (%) of control
# [17] = 500 μM/ml, read-out: 3H-thymidine tracer (%) of control
# [18] = Table 4, *: maximum usable dosage, no 50% inhibition, read-out: active substance concentration at which 3H-thymidine insertion was 50% inhibited
structure (smiles),measurement,setting,value
"O=c1ccc2ccc(O)cc2o1 [7-OH-1,2-BP, 7-hydroxy-1,2-benzopyrone]",% Growth inhibition compared with control,"g-UVW cells; 200 μmol/ml, after 10 days",40%
same,cytostatic effect on human anaplastic astrocytoma cells,"g-UVW cells; Example 3, FIG. 2",has a cytostatic effect on human anaplastic astrocytoma cells
same,% Growth inhibition compared with control,EJ cells,26%
same,Cell count,"TP 410 N cells; after 3 days, control 25",8 × 10^4
same,Cell count,"TP 410 N cells; after 5 days, control 45",20 × 10^4
same,Cell count,"TP 410 N cells; after 7 days, control 71",36 × 10^4
same,inhibition at 25 µM,"TP 410 N cells; Homo sapiens, Neuroblastoma cell, 288 h, 25 μM/ml (Table 2), read-out: % growth inhibition compared with control after 12 days",62%
same,cytotoxic / cytostatic effect,[1],"not cytotoxic for any of the cells, but cytostatic"
same,activity at 1 µM,"[2]; 1 μM/ml, read-out: 3H-thymidine insertion (%) of control",96%
same,activity at 2 µM,"[2]; 2 μM/ml, read-out: 3H-thymidine insertion (%) of control",91%
same,activity at 4 µM,"[2]; 4 μM/ml, read-out: 3H-thymidine insertion (%) of control",80%
same,activity at 8 µM,"[2]; 8 μM/ml, read-out: 3H-thymidine insertion (%) of control",73%
same,activity at 16 µM,"[2]; 16 μM/ml, read-out: 3H-thymidine insertion (%) of control",67%
same,activity at 25 µM,"[2]; 25 μM/ml, read-out: 3H-thymidine insertion (%) of control",50%
same,activity at 50 µM,"[2]; 50 μM/ml, read-out: 3H-thymidine insertion (%) of control",48%
same,activity at 100 µM,"[2]; 100 μM/ml, read-out: 3H-thymidine insertion (%) of control",42%
same,activity at 250 µM,"[2]; 250 μM/ml, read-out: 3H-thymidine insertion (%) of control",36%
same,activity at 500 µM,"[2]; 500 μM/ml, read-out: 3H-thymidine insertion (%) of control",21%
same,IC50,[2]; [7],25 µM
same,activity at 1 µM,At T 20; [8],98%
same,activity at 2 µM,At T 20; [9],89%
same,activity at 4 µM,At T 20; [10],85%
same,activity at 8 µM,At T 20; [11],78%
same,activity at 16 µM,At T 20; [12],65%
same,activity at 25 µM,At T 20; [13],60%
same,activity at 50 µM,At T 20; [14],62%
same,activity at 100 µM,At T 20; [15],44%
same,activity at 250 µM,At T 20; [16],38%
same,activity at 500 µM,At T 20; [17],31%
same,IC50,At T 20; [7],50 µM
same,activity at 1 µM,CAKI-1 cells; [8],100%
same,activity at 2 µM,CAKI-1 cells; [9],98%
same,activity at 4 µM,CAKI-1 cells; [10],90%
same,activity at 8 µM,CAKI-1 cells; [11],81%
same,activity at 16 µM,CAKI-1 cells; [12],76%
same,activity at 25 µM,CAKI-1 cells; [13],62%
same,activity at 50 µM,CAKI-1 cells; [14],57%
same,activity at 100 µM,CAKI-1 cells; [15],49%
same,activity at 150 µM,"CAKI-1 cells; 150 μM/ml, read-out: 3H-thymidine tracer (%) of control",44%
same,activity at 500 µM,CAKI-1 cells; [17],40%
same,IC50,CAKI-1 cells; [18],100 µM
same,activity at 1 µM,[3]; [8],96%
same,activity at 2 µM,[3]; [9],91%
same,activity at 4 µM,[3]; [10],82%
same,activity at 8 µM,[3]; [11],73%
same,activity at 16 µM,[3]; [12],65%
same,activity at 25 µM,[3]; [13],55%
same,activity at 50 µM,[3]; [14],49%
same,activity at 100 µM,[3]; [15],43%
same,activity at 250 µM,[3]; [16],39%
same,activity at 500 µM,[3]; [17],27%
same,IC50,[3]; [18],50 µM
same,activity at 1 µM,G-361 melanoma cells; [8],94%
same,activity at 2 µM,G-361 melanoma cells; [9],91%
same,activity at 4 µM,G-361 melanoma cells; [10],77%
same,activity at 8 µM,G-361 melanoma cells; [11],77%
same,activity at 16 µM,G-361 melanoma cells; [12],74%
same,activity at 25 µM,G-361 melanoma cells; [13],68%
same,activity at 50 µM,G-361 melanoma cells; [14],58%
same,activity at 100 µM,G-361 melanoma cells; [15],53%
same,activity at 250 µM,G-361 melanoma cells; [16],42%
same,activity at 500 µM,G-361 melanoma cells; [17],38%
same,IC50,G-361 melanoma cells; [18],125 µM
same,inhibition of mitochondrial activity,bladder tumor cells,a dosage-related inhibition of the mitochondrial activity occurs
same,inhibition of mitochondrial activity,[4],a dosage-related inhibition of the mitochondrial activity occurs
same,inhibition of cell growth,"LNCap cells; 500 μM 7-OH-1,2-BP/ml medium combined with 20 nM testosterone",virtually complete inhibition of cell growth
same,increase of growth inhibition by additional hormone therapy,LNCap cells; for example testosterone,can be increased by additional hormone therapy
same,side-effects,"[5]; 50 mg/day increased up to 2000 mg/day, 8 weeks, 60 patients",no side-effects at all had occurred
same,toxic side-effects,"[5]; long-term administration, 7000 mg/day",Toxic side-effects were not observed
same,growth-inhibiting effect on brain-tumor cells,[6],strong growth-inhibiting effect on brain-tumor cells
